Assay results published in US20220002268A1, “NOVEL HETEROARYL-TRIAZOLE AND HETEROARYL-TETRAZOLE COMPOUNDS AS PESTICIDES” (Bayer Aktiengesellschaft, priority 2019, published 2022).

Columns and labels:
[1] = tested on: Diabrotica balteata; test: Diabrotica balteata spray test; assay type: in vivo; details: 168 h, 160 gg/well, after 7 days, read-out: efficacy (seedlings grown)
Experimental: Diabrotica balteata—Spray Test Solvent: 78.0 parts by weight of acetone • • 1.5 parts by weight of dimethylformamide Emulsifier: alkylarylpolyglycol ether
(§1) To produce a suitable preparation of active compound, 1 part by weight of active compound is mixed with the stated amount of solvent, and the concentrate is diluted with water, containing an emulsifier concentration of 1000 ppm, to the desired concentration. Further test concentrations are prepared by dilution with emulsifier containing water.
Soaked wheat seeds (Triticum aestivum) are placed in a multiple well plate filled with agar and some water and are incubated for 1 day to germinate (5 seeds per well). The germinated wheat seeds are sprayed with a test solution containing the desired concentration of the active ingredient. Afterwards each unit is infected with 10-20 larvae of the banded cucumber beetle (Diabrotica balteata).
After 7 days efficacy in % is determined. 100% means all the seedlings have grown up like in the untreated, uninfected control; 0% means none of the seedlings have grown.

[2] = tested on: Myzus persicae; test: Myzus persicae oral test; assay type: in vivo; details: 120 h, after 5 days
Experimental: Myzus persicae—Oral Test Solvent: 100 parts by weight acetone
(§2) To produce a suitable preparation of active compound, 1 part by weight of active compound is mixed with the stated amount of solvent, and the concentrate is diluted with water to the desired concentration.
50 μl compound solution is filled in microtiter plates and 150 μl IPL41 insect medium (33%+15% sugar) is added to obtain a total volume of 200 μl per well. Afterwards the plates are sealed with parafilm through which a mixed population of the green peach aphid (Myzus persicae) can suck on the compound preparation.
After 5 days mortality in % is determined. 100% means all aphids have been killed and 0% means none of the aphids have been killed.

[3] = tested on: Ctenocephalides felis; test: Ctenocephalides felis oral test; assay type: in vivo; details: 48 h, 100 ppm in cattle blood, after 2 days
Experimental: Ctenocephalides felis—Oral Test Solvent: dimethyl sulfoxide
To produce a suitable preparation of active compound, 10 mg of active compound are dissolved in 0.5 ml solvent, and the concentrate is diluted with cattle blood to the desired concentration.
Approximately 20 adult unfed cat fleas (Ctenocephalides felis) are placed in flea chambers. The blood chamber, sealed with parafilm on the bottom, are filled with cattle blood supplied with compound solution and placed on the gauze covered top of the flea chamber, so that the fleas are able to suck the blood. The blood chamber is heated to 37° C. whereas the flea chamber is kept at room temperature.
After 2 days mortality in % is determined. 100% means all the fleas have been killed; 0% means none of the fleas have been killed.

[4] = tested on: Phaedon cochleariae; test: Phaedon cochleariae spray test; assay type: in vivo; details: 168 h, after 7 days
Experimental: Phaedon cochleariae—Spray Test Solvent: 78.0 parts by weight of acetone • • 1.5 parts by weight of dimethylformamide Emulsifier: alkylarylpolyglycol ether
as §1, with “solvents” for “solvent,”, “and” for “and the concentrate”
Chinese cabbage (Brassica pekinensis) leaf disks are sprayed with a preparation of the active ingredient of the desired concentration. Once dry, the leaf disks are infested with mustard beetle larvae (Phaedon cochleariae).
After 7 days mortality in % is determined. 100% means all beetle larvae have been killed and 0% means none of the beetle larvae have been killed.

[5] = tested on: Boophilus microplus; test: Boophilus microplus injection test; assay type: in vivo; details: Rhipicephalus microplus, 168 h; 20 gg/animal, injection into abdomen, after 7 days; read-out: efficacy (infertile eggs)
Experimental: Boophilus microplus—Injection Test Solvent: dimethyl sulfoxide To produce a suitable preparation of active compound, 10 mg of active compound are dissolved in 0.5 ml solvent, and the concentrate is diluted with solvent to the desired concentration. Five adult engorged female ticks (Boophilus microplus) are injected with 1 μl compound solution into the abdomen. The ticks are transferred into replica plates and incubated in a climate chamber. After 7 days egg deposition of fertile eggs is monitored. Eggs where fertility is not visible are stored in a climate chamber till hatching after about 42 days. An efficacy of 100% means all eggs are infertile; 0% means all eggs are fertile.

[6] = tested on: Meloidogyne incognita; test: Meloidogyne incognita test; assay type: in vivo; details: 20 ppm, after 14 days
Experimental: Meloidogyne incognita—Test Solvent: 125.0 parts by weight of acetone
as §2
Vessels are filled with sand, a solution of the active ingredient, a suspension containing eggs and larvae of the southern root-knot nematode (Meloidogyne incognita) and salad seeds. The salad seeds germinate and the seedlings grow. Galls develop in the roots.
After 14 days the nematicidal activity is determined on the basis of the percentage of gall formation. 100% means no galls were found and 0% means the number of galls found on the roots of the treated plants was equal to that in untreated control plants.

[7] = tested on: Spodoptera frugiperda; test: Spodoptera frugiperda spray test; assay type: in vivo; details: 168 h, after 7 days
Experimental: Suodontera frugiuerda—Spray Test Solvent: 78.0 parts by weight acetone • 1.5 parts by weight dimethylformamide Emulsifier: alkylarylpolyglycol ether
as §1, with “solvents” for “solvent,”, “and” for “and the concentrate”
Maize (Zea mays) leaf sections are sprayed with a preparation of the active ingredient of the desired concentration. Once dry, the leaf sections are infested with fall armyworm larvae (Spodoptera frugiperda).
After 7 days mortality in % is determined. 100% means all caterpillars have been killed and 0% means none of the caterpillars have been killed.

[8] = tested on: Nilaparvata lugens; test: Nilaparvata lugens spray test; assay type: in vivo; details: 96 h, after 4 days
Experimental: Nilaparvata lugens—Spray Test Solvent: 78.0 parts by weight of acetone • • 1.5 parts by weight of dimethylformamide Emulsifier: alkylarylpolyglycol ether
as §1, with “solvents” for “solvent,”, “and” for “and the concentrate”
Rice plants (Oryza sativa) are sprayed with a preparation of the active ingredient of the desired concentration and the plants are infested with the brown planthopper (Nilaparvata lugens).
After 4 days mortality in % is determined. 100% means all planthoppers have been killed and 0% means none of the planthoppers have been killed.

[9] = tested on: Nezara viridula; test: Nezara viridula spray test; assay type: in vivo; details: 96 h, after 4 days
Experimental: Nezara viridula—Spray Test Solvent: 78.0 parts by weight of acetone • • 1.5 parts by weight of dimethylformamide Emulsifier: alkylarylpolyglycol ether
as §1
Barley plants (Hordeum vulgare) infested with larvae of the southern green stink bug (Nezara viridula) are sprayed with a test solution containing the desired concentration of the active ingredient.
After 4 days mortality in % is determined. 100% means all the stink bugs have been killed; 0% means none of the stink bugs have been killed.

[10] = tested on: Aedes aegypti strain MONHEIM; test: Aedes aegypti test (AEDSAE surface treatment & contact assay); assay type: in vivo; details: surface concentration 20 mg/m^2, 30 minutes exposure, 24 hours after contact, read-out: efficacy (mortality)
Experimental: Aedes aegyti Test (AEDSAE Surface Treatment & Contact Assay) Solvent: Aceton+2000 ppm rapeseed oil methyl ester (RME)
In order to produce a sufficient, active ingredient containing solution it is necessary to solve the test compound in the solvent-mix (acetone at 2 mg/ml/RME 2000 ppm). This solution is pipetted onto a glazed tile and after evaporation of the acetone, adult mosquitoes of the species Aedes aegypti strain MONHEIM are placed onto the dried surface. The exposure time is 30 minutes.
Mortality in percent (%) is determined 24 hours after contact to the treated surface. 100% mortality means that all tested insects are dead, whereas 0% means that no insect died.

[11] = tested on: Tetranychus urticae; test: Tetranychus urticae spray test OP-resistant; assay type: in vivo; details: 144 h, after 6 days
Experimental: Tetranychus urticae—Spray Test OP-Resistant Solvent: 78.0 parts by weight acetone • 1.5 parts by weight dimethylformamide Emulsifier: alkylarylpolyglycol ether
as §1, with “solvents” for “solvent,”, “and” for “and the concentrate”
French bean (Phaseolus vulgaris) leaf disks infected with all instars of the two spotted spidermite (Tetranychus urticae), are sprayed with a preparation of the active ingredient of the desired concentration.
After 6 days mortality in % is determined. 100% means all spider mites have been killed and 0% means none of the spider mites have been killed.

[12] = log P by HPLC on reversed phase, acidic range; assay type: physicochemical; details: reversed phase HPLC column, LC-UV, 0.1% formic acid in water and acetonitrile
Experimental: (§3) Measurement of log P values was performed according to EEC directive 79/831 Annex V.A8 by HPLC (High Performance Liquid Chromatography) on reversed phase columns with the following methods. […] Calibration was done with straight-chain alkan-2-ones (with 3 to 16 carbon atoms) with known log P values (measurement of log P values using retention times with linear interpolation between successive alkanones). Lambda-max-values were determined using UV-spectra from 200 nm to 400 nm and the peak values of the chromatographic signals.

[13] = log P by HPLC on reversed phase, neutral range; assay type: physicochemical; details: reversed phase HPLC column, LC-UV, 0.001 molar ammonium acetate solution in water and acetonitrile
Experimental: as §3, with “methods. Instrument(s): Agilent 1100 LC system, Agilent MSD system, HTS PAL; Waters IClass Acquity UPLC, SQD2 (MS), PDA (UV).” for “methods.”

chromatographic logP [12] | chromatographic logP [13] | SMILES | pest or weed control at 160 µg/well [1] [%] | mortality at 20 ppm [2] [%] | mortality at 100 ppm [3] [%] | mortality at 500 g/ha [4] [%] | pest or weed control at 0.02 mg [5] [%] | nematicidal activity (gall formation) [6] [%] | mortality at 500 g/ha [7] [%] | mortality at 500 g/ha [8] [%] | mortality at 500 g/ha [9] [%] | mortality at 20 mg/m2 [10] [%] | mortality at 500 g/ha [11] [%]
 |  | O=C(c1cc(Cl)cc(C(F)(F)F)c1)N(Cc1ncnn1-c1ncccn1)CC1CC1 [Example I-001, 3-Chloro-N-(cyclopropylmethyl)-N-{[1-(pyrimidin-2-yl)-1H-1,2,4-triazol-5-yl]methyl}-5-(trifluoromethyl)benzamide] | 100 | 100 | 95 | 100 | 100 | 90 | 100 |  |  |  | 
 |  | O=C(c1cc(C(F)(F)F)cc(C(F)(F)F)c1)N(Cc1ncnn1-c1ncccn1)CC1CC1 [Example I-004] | 100 | 100 | 100 | 100 | 100 |  | 100 | 100 | 100 | 85 to 100 | 
 |  | O=C(NC1(c2ncnn2-c2ncccn2)CC1)c1cc(Cl)cc(OC(F)(F)F)c1 [Example I-016] |  |  |  |  |  |  |  |  |  |  | 90
0.83 | 0.83 | c1cnc(-n2ncnc2CNCC2CC2)nc1 [a-001, 1-cyclopropyl-N-{[1-(pyrimidin-2-yl)-1H-1,2,4-triazol-5-yl]methyl}methanamine] |  |  |  |  |  |  |  |  |  |  | 
